Experimental data from ChEMBL document CHEMBL5223132, “Structure-activity relationships of mixed σ1R/σ2R ligands with antiproliferative and anticancer effects” (Bioorg Med Chem, 2022).

Legend:
[1] = target: T1, Sigma non-opioid intracellular receptor 1 (Cavia porcellus, UniProt Q60492); assay: Binding affinity to sigma 1 receptor expressed in guinea pig brain; assay type: tissue-based
[2] = tested on: RPMI-8226; assay: Antiproliferative activity against human RPMI-8226 cells assessed as reduction in cell viability; assay type: functional, cell-based
[3] = target: T2, Sigma intracellular receptor 2 (Homo sapiens, UniProt Q5BJF2); assay: Binding affinity to sigma 2 receptor (unknown origin) expressed in human RT-4 cells; assay type: cell-based
T2 sequence (Q5BJF2 whole entry): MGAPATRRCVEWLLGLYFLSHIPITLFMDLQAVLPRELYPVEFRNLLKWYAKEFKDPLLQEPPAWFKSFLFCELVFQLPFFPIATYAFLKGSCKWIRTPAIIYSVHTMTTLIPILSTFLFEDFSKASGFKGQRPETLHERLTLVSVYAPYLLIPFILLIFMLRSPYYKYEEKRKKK

[4] = target: T3, Sigma intracellular receptor 2 (Rattus norvegicus, UniProt Q5U3Y7); assay: Binding affinity to sigma 2 receptor expressed in rat liver; assay type: tissue-based
T3 sequence (Q5U3Y7 whole entry): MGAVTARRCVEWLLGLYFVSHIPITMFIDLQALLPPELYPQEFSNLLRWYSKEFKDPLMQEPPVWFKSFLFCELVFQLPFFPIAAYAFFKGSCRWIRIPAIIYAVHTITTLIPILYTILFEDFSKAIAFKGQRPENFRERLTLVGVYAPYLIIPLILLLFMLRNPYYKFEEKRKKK

[5] = tested on: MCF7; assay: Antiproliferative activity against human MCF7 cells assessed as reduction in cell viability; assay type: functional, cell-based
[6] = target: T4, Sigma non-opioid intracellular receptor 1 (Homo sapiens, UniProt Q99720); assay: Binding affinity to sigma 1 receptor (unknown origin) expressed in human RPMI-8226 cells; assay type: cell-based
T4 sequence (Q99720 whole entry): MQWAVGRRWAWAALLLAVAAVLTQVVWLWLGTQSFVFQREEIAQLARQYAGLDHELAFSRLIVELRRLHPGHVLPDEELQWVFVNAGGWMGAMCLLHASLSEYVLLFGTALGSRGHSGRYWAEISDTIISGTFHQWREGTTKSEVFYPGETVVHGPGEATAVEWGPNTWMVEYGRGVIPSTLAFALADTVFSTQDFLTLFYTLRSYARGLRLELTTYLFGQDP

[7] = tested on: 5637; assay: Antiproliferative activity against human 5637 cells assessed as reduction in cell viability; assay type: functional, cell-based
[8] = tested on: A-427; assay: Antiproliferative activity against human A-427 cells assessed as reduction in cell viability; assay type: functional, cell-based
[9] = tested on: RPMI-8226; assay: Induction of apoptosis in human RPMI-8226 cells assessed as total apoptotic cells incubated for 48 hrs by annexin-V/propidium iodide staining based flow cytometry; assay type: functional
[10] = target: T5, 5-hydroxytryptamine receptor 1A (Homo sapiens, UniProt P08908); assay: Binding affinity to 5-HT1A receptor (unknown origin) by […]
T5 sequence (P08908 whole entry): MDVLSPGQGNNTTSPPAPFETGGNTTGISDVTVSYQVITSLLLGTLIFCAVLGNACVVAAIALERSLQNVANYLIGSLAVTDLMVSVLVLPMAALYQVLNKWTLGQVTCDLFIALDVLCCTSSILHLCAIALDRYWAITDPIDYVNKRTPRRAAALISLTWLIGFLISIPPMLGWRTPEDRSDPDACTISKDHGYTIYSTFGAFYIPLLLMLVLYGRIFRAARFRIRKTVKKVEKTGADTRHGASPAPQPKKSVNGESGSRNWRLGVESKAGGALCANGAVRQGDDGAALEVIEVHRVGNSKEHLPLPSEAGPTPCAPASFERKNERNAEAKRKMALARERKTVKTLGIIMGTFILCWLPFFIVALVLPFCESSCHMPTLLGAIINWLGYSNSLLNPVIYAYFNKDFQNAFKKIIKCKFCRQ

[11] = target: T4, Sigma non-opioid intracellular receptor 1; assay: Displacement of [H3]DTG from sigma 1 receptor (unknown origin) by competition binding assay
[12] = target: T2, Sigma intracellular receptor 2; assay: Displacement of [H3]DTG from sigma 2 receptor (unknown origin) by competition binding assay
[13] = target: T3, Sigma intracellular receptor 2; assay: Displacement of [3H]DTG from sigma 2 receptor expressed in rat liver membranes assessed as inhibition constant in presence of (+)-pentazocine by radioligand binding assay; assay type: cell membranes, Membrane
[14] = target: T1, Sigma non-opioid intracellular receptor 1; assay: Displacement of [3H]pentazocine from sigma 1 receptor expressed in guinea pig brain membranes assessed as inhibition constant by radioligand binding assay; assay type: cell membranes, Membrane
[15] = target: T2, Sigma intracellular receptor 2; assay: Binding affinity to human sigma 2 receptor
[16] = Anti-proliferative against human U-87 MG cells assessed as reduction in cell viability incubated for 72 hrs by MTT assay; assay type: functional, cell-based, U-87MG ATCC
[17] = Anti-proliferative against human U-87 MG cells assessed as reduction in cell viability incubated for 24 hrs by MTT assay; assay type: functional, cell-based, U-87MG ATCC
[18] = Anti-proliferative against human U-87 MG cells assessed as reduction in cell viability incubated for 48 hrs by MTT assay; assay type: functional, cell-based, U-87MG ATCC
[19] = Binding affinity to human sigma 1 receptor
[20] = tested on: SK-N-SH; assay: Antiproliferative activity against human SK-N-SH cells assessed as reduction in cell viability incubated for 48 hrs by MTT assay; assay type: functional, cell-based
[21] = tested on: PC-3; assay: Antiproliferative activity against human PC-3 cells assessed as reduction in cell viability incubated for 48 hrs by MTT assay; assay type: functional, cell-based; conditions: PC-3, 48 h
[22] = target: ATP-dependent translocase ABCB1 (Homo sapiens, UniProt P08183); assay: Inhibition of P-gp transporter (unknown origin) expressed in dog MDCK-MDR1 assessed as inhibition of fluorescent Calcein-AM transport by fluorescence based assay; assay type: cell-based
Sequence of ATP-dependent translocase ABCB1 (P08183 whole entry): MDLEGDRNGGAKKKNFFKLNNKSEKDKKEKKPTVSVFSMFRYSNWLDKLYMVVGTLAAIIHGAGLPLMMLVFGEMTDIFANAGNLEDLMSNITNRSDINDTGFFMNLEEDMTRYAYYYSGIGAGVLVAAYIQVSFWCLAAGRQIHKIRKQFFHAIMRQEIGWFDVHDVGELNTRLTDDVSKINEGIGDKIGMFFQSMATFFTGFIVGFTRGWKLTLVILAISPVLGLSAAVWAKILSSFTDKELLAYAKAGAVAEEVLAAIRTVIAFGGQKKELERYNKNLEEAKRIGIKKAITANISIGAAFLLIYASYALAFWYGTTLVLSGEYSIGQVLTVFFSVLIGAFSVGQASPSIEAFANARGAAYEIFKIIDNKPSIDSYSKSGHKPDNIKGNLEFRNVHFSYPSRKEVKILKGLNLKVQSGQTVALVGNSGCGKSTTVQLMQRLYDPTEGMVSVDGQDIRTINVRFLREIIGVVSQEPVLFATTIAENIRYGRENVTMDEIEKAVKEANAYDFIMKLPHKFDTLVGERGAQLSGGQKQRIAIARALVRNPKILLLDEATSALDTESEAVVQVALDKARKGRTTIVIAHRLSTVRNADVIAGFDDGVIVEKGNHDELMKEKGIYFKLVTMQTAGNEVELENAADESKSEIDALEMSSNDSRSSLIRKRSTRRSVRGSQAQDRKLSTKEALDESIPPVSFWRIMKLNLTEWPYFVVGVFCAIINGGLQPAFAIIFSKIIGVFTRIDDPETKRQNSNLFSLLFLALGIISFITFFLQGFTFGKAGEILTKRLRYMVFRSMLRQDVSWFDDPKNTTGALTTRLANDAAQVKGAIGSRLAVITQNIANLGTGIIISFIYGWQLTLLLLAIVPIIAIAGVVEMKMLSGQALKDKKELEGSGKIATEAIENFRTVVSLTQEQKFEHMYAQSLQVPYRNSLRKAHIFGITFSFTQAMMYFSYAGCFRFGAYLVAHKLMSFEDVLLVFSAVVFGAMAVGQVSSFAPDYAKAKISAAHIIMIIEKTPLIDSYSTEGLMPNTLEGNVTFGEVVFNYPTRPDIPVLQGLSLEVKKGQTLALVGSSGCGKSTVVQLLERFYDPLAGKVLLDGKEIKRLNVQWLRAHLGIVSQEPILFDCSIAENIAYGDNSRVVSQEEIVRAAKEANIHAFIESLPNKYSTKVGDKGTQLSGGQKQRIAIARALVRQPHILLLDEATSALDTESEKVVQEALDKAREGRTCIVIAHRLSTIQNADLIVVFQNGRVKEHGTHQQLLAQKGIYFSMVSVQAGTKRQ

[23] = target: D(2) dopamine receptor (Homo sapiens, UniProt P14416); assay: Binding affinity to D2R receptor (unknown origin)
Sequence of D(2) dopamine receptor (P14416 whole entry): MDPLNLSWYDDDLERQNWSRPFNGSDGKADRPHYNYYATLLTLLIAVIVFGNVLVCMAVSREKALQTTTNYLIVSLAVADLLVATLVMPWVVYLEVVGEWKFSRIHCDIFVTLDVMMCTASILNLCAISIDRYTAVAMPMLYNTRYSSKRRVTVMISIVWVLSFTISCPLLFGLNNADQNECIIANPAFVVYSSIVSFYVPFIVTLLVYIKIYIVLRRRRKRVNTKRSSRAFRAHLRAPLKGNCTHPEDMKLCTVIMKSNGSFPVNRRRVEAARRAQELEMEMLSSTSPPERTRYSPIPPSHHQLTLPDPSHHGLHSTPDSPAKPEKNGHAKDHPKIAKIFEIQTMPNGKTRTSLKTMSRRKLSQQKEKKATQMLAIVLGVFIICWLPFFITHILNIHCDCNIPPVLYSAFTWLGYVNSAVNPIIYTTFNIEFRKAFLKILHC

[24] = target: T4, Sigma non-opioid intracellular receptor 1; assay: Binding affinity to sigma 1 receptor (unknown origin)
[25] = tested on: MDCK-MDR1; assay: Anticancer against dog MDCK-MDR1 cells assessed as reduction in cell viability at 30 uM incubated for 48 hrs in presence of doxorubicin by MTT assay; assay type: functional, Canis lupus familiaris
[26] = tested on: MDCK-MDR1; assay: Anticancer against dog MDCK-MDR1 cells assessed as reduction in cell viability at 50 uM incubated for 48 hrs by MTT assay; assay type: functional, Canis lupus familiaris
[27] = tested on: MDCK-MDR1; assay: Anticancer against dog MDCK-MDR1 cells assessed as reduction in cell viability at 50 uM incubated for 48 hrs in presence of doxorubicin by MTT assay; assay type: functional, Canis lupus familiaris
[28] = target: T4, Sigma non-opioid intracellular receptor 1; assay: Binding affinity to human sigma 1 receptor
[29] = tested on: MCF7; assay: Antiproliferative activity against human MCF7 cells assessed as reduction in cell proliferation at 100 uM incubated for 48 hrs by MTT assay; assay type: functional; design: scale not given: the % may be the effect or the level left
[30] = tested on: MDA-MB-231; assay: Anti-invasive activity against human MDA-MB-231 cells assessed as decrease in cell invasion at 10 uM incubated for 24 hrs by 3D spheroid invasion assay; assay type: functional; design: scale not given: the % may be the effect or the level left
[31] = tested on: MDA-MB-231; assay: Anti-migratory activity against human MDA-MB-231 cells assessed as reduction in cell migration at 10 uM and measured after 12 hrs by wound healing assay; assay type: functional; design: scale not given: the % may be the effect or the level left
[32] = target: T2, Sigma intracellular receptor 2; assay: Binding affinity to sigma 2 receptor (unknown origin)
[33] = Anti-proliferative against human U-87 MG cells assessed as reduction in cell viability at 40 uM incubated for 24 hrs by MTT assay; assay type: functional, U-87MG ATCC
[34] = tested on: RPMI-8226; assay: Anti-proliferative against human RPMI-8226 cells assessed as reduction in cell viability at 40 uM incubated for 24 hrs by MTT assay; assay type: functional
[35] = target: T1, Sigma non-opioid intracellular receptor 1; assay: Displacement of [3H]pentazocine from sigma 1 receptor expressed in guinea pig brain membranes assessed as inhibition constant incubated for 150 mins by radioligand binding assay; assay type: cell membranes, Membrane
[36] = tested on: SK-MEL-28; assay: Anti-proliferative against human SK-MEL-28 cells assessed as reduction in cell viability incubated for 24 hrs by MTT assay; assay type: functional, cell-based; conditions: SK-MEL-28, 24 h
[37] = target: T3, Sigma intracellular receptor 2; assay: Displacement of [3H]DTG from sigma 2 receptor expressed in rat liver membranes assessed as inhibition constant incubated for 120 mins in presence of (+)-SKF10047 by radioligand binding assay; assay type: cell membranes, Membrane
[38] = tested on: SK-MEL-28; assay: Anti-proliferative against human SK-MEL-28 cells assessed as reduction in cell viability incubated for 48 hrs by MTT assay; assay type: functional, cell-based; conditions: SK-MEL-28, 48 h

T1 sequence (Q60492 whole entry): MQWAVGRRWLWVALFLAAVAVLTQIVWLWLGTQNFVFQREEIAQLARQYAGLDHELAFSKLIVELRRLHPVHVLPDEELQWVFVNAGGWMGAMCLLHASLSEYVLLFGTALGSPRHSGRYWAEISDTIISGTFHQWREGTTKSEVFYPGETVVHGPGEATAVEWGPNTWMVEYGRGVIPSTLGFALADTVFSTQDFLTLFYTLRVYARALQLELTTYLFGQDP

CCN1CCN(Cc2cccc3ccccc23)[C@H](CCO)C1
Ki [1]: 0.9 nM | IC50 [2]: 8530 nM | Ki [3]: 37 nM | Ki [4]: 14 nM | IC50 [5]: 9050 nM | Ki [6]: 7.5 nM | IC50 [7]: 4790 nM | IC50 [8]: 5020 nM | Activity [9]: 32%

O=C(CN1CCC(CN2Cc3ccccc3C2=O)CC1)c1ccc(F)cc1 [ROLUPERIDONE]
Ki [10]: 7.53 nM

CN1C(=O)CCc2cc(CNC(C)(C)[C@@H](O)c3ccccc3)ccc21
Ki [11]: > 1000 nM | Ki [12]: 4 nM

CCN(C/C=C\c1ccc(C2CCCCC2)c(Cl)c1)C1CCCCC1
Ki [11]: 2 nM | IC50 [12]: 45 nM

CCCCCCNCC[C@H]1CCC[C@@H](c2ccccc2)O1
Ki [13]: 36 nM | Ki [14]: 2.4 nM

CCCN(CCC)CCc1ccc(OC)c(OCCc2ccccc2)c1
Ki [15]: 170 nM

C/C(=C\CN1CCN(C(=O)C2CCCC2)CC1)c1ccccc1
IC50 [16]: 11200 nM | IC50 ([17]; Homo sapiens, U-87 MG, 24 h): 39000 nM | IC50 [18]: 39000 nM

O=C(NC1CCN(Cc2ccccc2)CC1)c1ccc(I)cc1
Ki [15]: 25.2 nM | Ki [19]: 1.7 nM

Fc1cccc(F)c1[C@H]1CC[C@@H](N2CCN(C3CCCCC3)CC2)CC1
EC50 [20]: 12100 nM | Ki [13]: 14.1 nM | EC50 [21]: 40600 nM | EC50 [22]: 7300 nM | Ki [14]: 0.63 nM

CCCN1CCC(c2cccc(S(C)(=O)=O)c2)CC1 [PRIDOPIDINE]
Ki [23]: 10000 nM | Ki [24]: 17 nM

OCC[C@H]1CN(CC2CCCCC2)CCN1Cc1ccc(-c2ccccc2)cc1
Ki [3]: 43 nM | Ki [4]: 73 nM | IC50 [5]: 8830 nM | IC50 [7]: 10500 nM | IC50 [8]: 9250 nM

C/C(=C\CN1CCN(Cc2ccc(C(F)(F)F)cc2)CC1)c1ccccc1
IC50 [16]: 19000 nM | IC50 ([17]; Homo sapiens, U-87 MG, 24 h): 28300 nM | IC50 ([17]; u-87mg atcc): 22300 nM | IC50 [18]: 22300 nM

COc1cccc(OC)c1[C@H]1CC[C@@H](N2CCN(C3CCCCC3)CC2)CC1
EC50 [20]: 32500 nM | Ki [13]: 7.92 nM | Activity [25]: 70% | EC50 [21]: 31300 nM | EC50 [22]: 800 nM | Activity [26]: 50% | Activity [27]: 90% | Ki [14]: 0.26 nM

COc1ccc(C)cc1NC(=O)OC1CC2CCCC(C1)N2CCCCCCCCCCN (stereo not given)
Ki [12]: 7.7 nM

CCCN1CCC=C(c2cc(-c3ccc(C)cc3)no2)C1
Ki [15]: 1380 nM | Ki [28]: 0.08 nM

CCCCCCNCC[C@@H]1CCC[C@H](c2ccccc2)O1
Ki [13]: 57 nM | Ki [14]: 0.95 nM

OC(CCCN1CCC(O)(c2ccc(Cl)cc2)CC1)c1ccc(F)cc1 (racemic) [HYDROXYHALOPERIDOL]
Activity [29]: 98%

O=C(CCCN1CCCN(c2ccc(Cl)cc2)CC1)c1ccc(F)cc1
Activity [30]: 49% | Activity [31]: 95%

CCN1CCN(Cc2cccc3ccccc23)[C@@H](CCO)C1
Ki [1]: 1.9 nM | IC50 [2]: 1290 nM | Ki [3]: 16 nM | Ki [4]: 26 nM | IC50 [5]: 9770 nM | Ki [6]: 29 nM | IC50 [7]: 3650 nM | IC50 [8]: 9120 nM

CCN(CC)CCNC(=O)c1ccc(OC)c([123I])c1
Ki [32]: 206 nM | Ki [24]: 11.8 nM

C/C(=C\CN1CCN(Cc2ccccc2)CC1)c1ccc2ccccc2c1
Activity [33]: 34% | Activity [34]: 65%

O=c1sc2cc(CCCF)ccc2n1CCN1CCCCCC1
Ki [24]: 0.0025 nM

C1=C(c2c[nH]c3ncccc23)CCN(CCCc2ccccc2)C1
Ki [11]: 29 nM

COc1ccc(/C(C)=C/CN2CCN(Cc3ccc(C(F)(F)F)cc3)CC2)cc1
IC50 [16]: 20600 nM | IC50 ([17]; Homo sapiens, U-87 MG, 24 h): 27600 nM | IC50 ([17]; u-87mg atcc): 24100 nM | IC50 [18]: 24100 nM

OCC[C@@H]1CN(CC2CCCCC2)CCN1Cc1ccc(-c2ccccc2)cc1
Ki [3]: 39 nM | Ki [4]: 38 nM | IC50 [5]: > 20000 nM | IC50 [7]: 6570 nM | IC50 [8]: 3460 nM

c1ccc(CC2CCN(CC3CSC4(CCCCC4)S3)CC2)cc1 (stereo not given)
Ki [35]: 537 nM | IC50 [36]: 52000 nM | Ki [37]: 19.5 nM | IC50 [38]: 22000 nM

COc1cc2c(cc1OC)CN(CCCCNC(=O)c1cc(C)ccc1OCC[18F])CC2
Ki [32]: 2 nM | Ki [24]: 23.9 nM

CCCCCCCNCCC1CCN(C)C(c2ccccc2)C1 (stereo not given)
Ki [13]: 285 nM | Ki [14]: 16 nM

O=C(OCCN1CCOCC1)C1(c2ccccc2)CCCCC1
Ki [15]: 32100 nM

c1ccc(CN2CCN(CC3CSC4(CCCCC4)S3)CC2)cc1 (stereo not given)
Ki [35]: 6.16 nM | IC50 [36]: 50000 nM | Ki [37]: 75.9 nM | IC50 [38]: 38000 nM
